Earlier results in US6641838B2, “Effervescent drug delivery system for oral administration” (Cima Labs Inc., priority 1998, dated 2003).

Settings: in vivo, po

Compound | Bioavailability (%) | average bioavailability | range of bioavailability (inter- and intrasubject variability)
CNC1(c2ccccc2Cl)CCCCC1=O (stereo not shown) [Ketamine] | 20 ± 7 |  | 
Oc1ccc2c3c1O[C@H]1[C@@H](O)CC[C@@]4(O)[C@@H](C2)N(CC2CCC2)CC[C@]314 [Nalbuphine] | 25 ± 16 | approximately 17% | 6-40%
CN(C)C(=O)Oc1ccc[n+](C)c1 [Pyridostigmine] | 14 ± 3 |  | 
Methyldopa | 25 ± 16 | 25% | 

Same assay, conditions: orally administered drug, conventional dosage forms; examples of drugs with poor bioavailability

Compound | Bioavailability (%)
Nc1nc2c(ncn2COCCO)c(=O)[nH]1 [Acyclovir] | 15 − 30%
CC(=O)OC[C@H]1O[C@@H]([S-])[C@H](OC(C)=O)[C@@H](OC(C)=O)[C@@H]1OC(C)=O.CCP(CC)CC.[Au+] [Auranofin] | 15 − 25%
CC[N+](C)(C)Cc1ccccc1Br [Bretylium] | 23 ± 9%
Nc1ccn([C@@H]2O[C@H](CO)[C@@H](O)[C@@H]2O)c(=O)n1 [Cytarabine] | 20%
CN(C)CCC=C1c2ccccc2COc2ccccc21 [Doxepin] | 27 ± 10%
NNc1nncc2ccccc12 [Hydralazine] | 16 − 35%
CC(CCc1ccccc1)NCC(O)c1ccc(O)c(C(N)=O)c1 (stereo not shown) [Labetalol] | 18 ± 5%
Sc1ncnc2nc[nH]c12 [Mercaptopurine] | 12 ± 7%
C=CCN1CC[C@]23c4c5ccc(O)c4O[C@H]2C(=O)CC[C@@]3(O)[C@H]1C5 [Naloxone] | 2%
CC(=O)CCCCn1c(=O)c2c(ncn2C)n(C)c1=O [Pentoxifylline] | 19 ± 13%
Cc1cc2nc3c(=O)[nH]c(=O)nc-3n(C[C@H](O)[C@H](O)[C@H](O)CO)c2cc1C [Riboflavin] | 11%
CC(C)(C)NCC(O)c1cc(O)cc(O)c1 (stereo not shown) [Terbutaline] | 14 ± 2%
